From patent publication US20050043341A1, “3-'Hydroxy-(-4-trifluoromethylphenyl)-methyl-7-spirocyclobutyl-5,6,7 8-tetrahydroquinolin-5-ol derivatives and the use of the same as cholesterol ester transfer protein (cetp) inhibitors” (priority 2001, published 2005)
Read-outs that look alike come from different tables or passages of the source.

Assays:
[1] = target: T1, CETP (Homo sapiens, UniProt P11597); experiment: CETP fluorescence test; format: biochemical; details: CETP from human plasma, 37° C., 4 hours; read-out: IC50 (nM) Fluor. test
T1 construct: CETP is obtained in partially purified form from human plasma; from tissue; host or cells: human plasma
T1 sequence (P11597 18-493): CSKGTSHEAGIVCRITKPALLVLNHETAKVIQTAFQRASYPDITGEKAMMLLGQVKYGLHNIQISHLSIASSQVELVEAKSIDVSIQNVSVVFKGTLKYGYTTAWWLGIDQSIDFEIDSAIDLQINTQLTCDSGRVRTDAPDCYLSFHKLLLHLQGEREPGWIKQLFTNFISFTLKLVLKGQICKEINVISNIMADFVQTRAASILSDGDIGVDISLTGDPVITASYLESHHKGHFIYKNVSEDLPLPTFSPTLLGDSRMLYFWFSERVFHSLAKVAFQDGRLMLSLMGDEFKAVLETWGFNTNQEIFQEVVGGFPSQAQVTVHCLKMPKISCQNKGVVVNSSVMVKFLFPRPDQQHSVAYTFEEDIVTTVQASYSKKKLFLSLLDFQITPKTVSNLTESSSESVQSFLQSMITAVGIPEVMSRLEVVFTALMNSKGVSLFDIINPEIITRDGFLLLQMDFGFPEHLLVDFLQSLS
Procedure: (§1) CETP is obtained in partially purified form from human plasma by differential centrifugation and column chromatography and used for the test. To this end, human plasma is adjusted to a density of 1.21 g per ml using NaBr and centrifuged at 4° C. at 50000 rpm for 18 h. The bottom fraction (d>1.21 g/ml) is applied to a Sephadex® Phenyl-Sepharose 4B (Pharmacia) column, washed with 0.15 M NaCl/0.001 M tris HCl pH 7.4 and then eluted with dist. water. Die CETP-active fractions are pooled, dialysed against 50 mM Na acetate pH 4.5 and applied to a CM-Sepharose® (Pharmacia) column. The mixture is then eluted using a linear gradient (0-1 M NaCl). The pooled CETP fractions are dialysed against 10 mM TrisHCl pH 7.4 and then further purified by chromatography on a Mono Q® column (Pharmacia).
Measurement of the CETP-catalysed transfer of a fluorescent cholesterol ester between liposomes—modified according to the procedure of Bisgaier et al., J. Lipid Res. 34, 1625 (1993).
For the production of the donor liposomes, 1 mg of cholesteryl 4,4-difluoro-5,7-dimethyl-4-bora-3a,4a-diaza-s-indacene-3-dodecanoate (cholesteryl BODIPY® FL C12, Molecular Probes) is dissolved in 600 μl of dioxane with 5.35 mg of triolein and 6.67 mg of phosphatidylcholine with gentle warming in an ultrasonic bath and this solution is added very slowly with ultrasonication to 63 ml of 50 mM tris/HCl, 150 mM NaCl, 2 mM EDTA buffer pH 7.3 at RT.
The suspension is then ultrasonicated under an N2 atmosphere for 30 minutes in the Braukson ultrasonic bath at about 50 watts, the temperature being kept at about 20° C.
The acceptor liposomes are obtained analogously from 86 mg of cholesteryl oleate, 20 mg of triolein and 100 mg of phosphatidylcholine dissolved in 1.2 ml of dioxane and 114 ml of above buffer by ultrasonication at 50 watts (20° C.) for 30 minutes.
For testing, a test mix consisting of 1 part of above buffer, 1 part of donor liposomes and 2 parts of acceptor liposomes is used.
80 μl of test mix are treated with 1-3 μg of enriched CETP fraction, obtained from human plasma by means of hydrophobic chromatography, and 2 μl of the substance to be investigated in DMSO and incubated at 37° C. for 4 hours.
The change in the fluorescence at 485/535 nm is a measure of the CE transfer; the inhibition of the transfer in comparison to the control batch without substance is determined.

[2] = target: T1, CETP; experiment: CETP-SPA test; format: biochemical; details: 3H-cholesterol ester transfer from HDL to biotin-LDL, 37° C., 18 h
Procedure: as §1
50 ml of fresh human EDTA plasma are adjusted to a density of 1.12 using NaBr and centrifuged at 4° C. in a Ty 65 rotor at 50000 rpm for 18 h. The upper phase is used for the obtainment of cold LDL. The lower phase is dialysed against 3×41 of PDB buffer (10 mM tris/HCl pH 7.4, […], 1 mM EDTA, 0.02% NaN3). Per 10 ml of retentate volume, 20 μl of 3H-cholesterol (Dupont NET-725; 1 μC/μl dissolved in ethanol!) is then added and the mixture is incubated at 37° C. under N2 for 72 h.
The batch is then adjusted to the density 1.21 using NaBr and centrifuged at 20° C. in a Ty 65 rotor at 50000 rpm for 18 h. The upper phase is recovered and the lipoprotein fractions are purified by gradient centrifugation. To this end, the isolated, labelled lipoprotein fraction is adjusted to a density of 1.26 using NaBr. 4 ml each of this solution are covered in centrifuged tubes (SW 40 rotor) with a layer of 4 ml of a solution of density 1.21 and 4.5 ml of a solution of 1.063 (density solutions of PDB buffer and NaBr) and then centrifuged for 24 h at 38000 rpm and 20° C. in the SW 40 rotor. The intermediate layer lying between the density 1.063 and 1.21, containing the labelled HDL, is dialysed against 3×100 volumes of PDB buffer at 4° C.
The retentate contains radiolabelled ^3H-CE-HDL, which, adjusted to about 5×10^6 cmp per ml, is used for the test.
For testing of the CETP activity, the transfer of ^3H-cholesterol ester from human HD lipoproteins to biotinylated LD lipoproteins is measured.
The reaction is ended by addition of streptavidin-SPA®beads (Amersham) and the transferred radioactivity is determined directly in a liquid scintillation counter.
In the test batch, 10 μl of HDL-^3H-cholesterol ester (˜50000 cpm) are incubated at 37° C. for 18 h with 10 μl of biotin-LDL (Amersham) in 50 mM Hepes/0.15 M NaCl/0.1% bovine serum albumin/0.05% NaN3 pH 7.4 containing 10 μl of CETP (1 mg/ml) and 3 μl of solution of the substance to be tested (dissolved in 10% DMSO/1% RSA). 200 μl of the SPA-streptavidin bead solution (TRKQ 7005) are then added, incubated further with shaking for 1 h and then measured in a scintillation counter.
Corresponding incubations with 10 μl of buffer, 10 μl of CETP at 4° C. and 10 μl of CETP at 37° C. serve as controls.
The activity transferred in the control batches with CETP at 37° C. is rated as 100% transfer. The substance concentration at which this transfer is reduced to half is specified as the IC50 value.

[3] = target: T2, CETP activity in the serum (Homo sapiens, UniProt P11597); experiment: Ex vivo activities on transgenic hCETP mice (serum CETP activity after oral administration); details: mouse, cholesteryl ester transport in serum
T2 construct: determination of its basal CETP activity in the serum; from tissue; host or cells: serum of transgenic hCETP mice
T2 sequence (P11597 18-493): T1 sequence (P11597 18-493)
Procedure: To test for CETP-inhibitory activity, the substances are administered orally using a stomach tube to transgenic hCETP mice of our own breeding (Dinchuk et al. BBA (1995) 1295-301). To this end, male mice are randomly assigned to groups having an equal number of animals, as a rule n=3, one day before the start of the experiment. Before administration of the substance, blood is taken from each mouse by puncture of the retroorbital venous plexus for the determination of its basal CETP activity in the serum (T1). The test substance is then administered to the animals using the stomach tube. At specific times after administration of the test substance, blood is taken from the animals by puncture a second time (T2), as a rule 1, or 3 and 6 h after substance administration, but if appropriate this can also be carried out at another time.
In order to be able to assess the inhibitory activity of a substance, for each time, i.e. 1 or 3 or 6 h, a corresponding control group is employed whose animals only receive the formulating agent without substance. In the control animals, the second blood sampling per animal is carried out as in the substance-treated animals in order to be able to determine the change in the CETP activity without inhibitor over the corresponding experimental time interval (1, 3 or 6 h).
After termination of the clotting, the blood samples are centrifuged and the serum is removed by pipette.
For the determination of the CETP activity, the cholesteryl ester transport over 4 h is determined. To this end, as a rule 2 μl of serum are employed in the test batch and the test is carried out as described under “CETP fluorescence test”.
The differences in the cholesteryl ester transport (pM CE*/h (T2)−pM CE*/h (T1)) are calculated for each animal and averaged in the groups. A substance which at one of the times reduces the cholesteryl ester transport by >30% is regarded as active.

[4] = 1 h after administration, read-out: % inhibition at 30 mg/kg, 1 h
[5] = 3 h after administration, read-out: % inhibition at 30 mg/kg, 3 h
[6] = 6 h after administration, read-out: % inhibition at 30 mg/kg, 6 h

Row | IC50 [1] [nM] | IC50 [2] [nM] | inhibition at 30 mg/kg [3, 4] [%] | inhibition at 30 mg/kg [3, 5] [%] | inhibition at 30 mg/kg [3, 6] [%] | Compound
1 | 65 |  |  |  |  | O[C@@H](c1ccc(C(F)(F)F)cc1)c1c(C2CCCC2)nc2c(c1-c1ccccc1)[C@@H](O)CC1(CCC1)C2 [Example 55, (5S)-2-Cyclopentyl-4-phenyl-3-[(S)-hydroxy-(4-trifluoromethylphenyl)-methyl]-7-spirocyclobutyl-5,6,7,8-tetrahydroquinolin-5-ol]
2 | 45 | 40 |  |  |  | CC(C)c1nc2c(c(-c3ccsc3)c1[C@@H](O)c1ccc(C(F)(F)F)cc1)[C@@H](O)CC1(CCC1)C2 [Example 57, (5S)-2-Isopropyl-4-(3-thienyl)-3-[(S)-hydroxy-(4-trifluoromethylphenyl)-methyl]-7-spirocyclobutyl-5,6,7,8-tetrahydroquinolin-5-ol]
3 | 60 | 35 |  |  |  | O[C@@H](c1ccc(C(F)(F)F)cc1)c1c(C2CCCC2)nc2c(c1-c1ccsc1)[C@@H](O)CC1(CCC1)C2 [Example 59, (5S)-2-Cyclopentyl-4-(3-thienyl)-3-[(S)-hydroxy-(4-trifluoromethylphenyl)-methyl]-7-spirocyclobutyl-5,6,7,8-tetrahydroquinolin-5-ol]
4 | 70 |  | 74 | 55 | 40 | O[C@@H](c1ccc(C(F)(F)F)cc1)c1c(C2CCCC2)nc2c(c1-c1cccs1)[C@@H](O)CC1(CCC1)C2 [Example 63, (5S)-2-Cyclopentyl-4-(2-thienyl)-3-[(S)-hydroxy-(4-trifluoromethylphenyl)-methyl]-7-spirocyclobutyl-5,6,7,8-tetrahydroquinolin-5-ol]
5 | 80 |  | 69 | 46 | 28 | CC(C)c1nc2c(c(C3CCCCC3)c1[C@@H](O)c1ccc(C(F)(F)F)cc1)[C@@H](O)CC1(CCC1)C2 [Example 65, (5S)-2-Isopropyl-4-cyclohexyl-3-[(S)-hydroxy-(4-trifluoromethylphenyl)-methyl]-7-spirocyclobutyl-5,6,7,8-tetrahydroquinolin-5-ol]
6 | 60 | 15 |  |  |  | O[C@@H](c1ccc(C(F)(F)F)cc1)c1c(C2CCCC2)nc2c(c1C1CCCCC1)[C@@H](O)CC1(CCC1)C2 [Example 67, (5S)-2-Cyclopentyl-4-cyclohexyl-3-[(S)-hydroxy-(4-trifluoromethylphenyl)-methyl]-7-spirocyclobutyl-5,6,7,8-tetrahydroquinolin-5-ol]
7 | 800 |  |  |  |  | O[C@@H](c1ccc(C(F)(F)F)cc1)c1c(C2CCCC2)nc2c(c1C1CCC1)[C@@H](O)CC1(CCC1)C2 [Example 73, (5S)-2-Cyclopentyl-4-cyclobutyl-3-[(S)-hydroxy-(4-trifluoromethylphenyl)-methyl]-7-spirocyclobutyl-5,6,7,8-tetrahydroquinolin-5-ol]
8 | 70 |  |  |  |  | CC(C)c1c([C@@H](O)c2ccc(C(F)(F)F)cc2)c(C2CCCC2)nc2c1[C@@H](O)CC1(CCC1)C2 [Example 75, (5S)-2-Cyclopentyl-4-isopropyl-3-[(S)-hydroxy-(4-trifluoromethylphenyl)-methyl]-7-spirocyclobutyl-5,6,7,8-tetrahydroquinolin-5-ol]
9 | 2000 |  |  |  |  | CCCc1c([C@@H](O)c2ccc(C(F)(F)F)cc2)c(C2CCCC2)nc2c1[C@@H](O)CC1(CCC1)C2 [Example 77, (5S)-2-Cyclopentyl-4-(1-propyl)-3-[(S)-hydroxy-(4-trifluoromethylphenyl)-methyl]-7-spirocyclobutyl-5,6,7,8-tetrahydroquinolin-5-ol]
